Assay results published in patent US8450324B2, “Crystalline base of trans-1-((1R,3S)-6-chloro-3-phenylindan-1-yl)-3,3-dimethylpiperazine” (H. Lunbeck A/S, priority 2005, dated 2013).

What was measured:
alfa1 adrenoceptors = conditions: as described in PCT/DK04/000546; cited from earlier work
dopamine D1 receptors = dopamine D1 receptors (Homo sapiens, UniProt P21728); conditions: as described in PCT/DK04/000546; cited from earlier work
[1] = target: serotonin 5-HT2a receptors (Homo sapiens, UniProt P28223); conditions: as described in PCT/DK04/000546; cited from earlier work
Sequence of serotonin 5-HT2a receptors (P28223 whole entry): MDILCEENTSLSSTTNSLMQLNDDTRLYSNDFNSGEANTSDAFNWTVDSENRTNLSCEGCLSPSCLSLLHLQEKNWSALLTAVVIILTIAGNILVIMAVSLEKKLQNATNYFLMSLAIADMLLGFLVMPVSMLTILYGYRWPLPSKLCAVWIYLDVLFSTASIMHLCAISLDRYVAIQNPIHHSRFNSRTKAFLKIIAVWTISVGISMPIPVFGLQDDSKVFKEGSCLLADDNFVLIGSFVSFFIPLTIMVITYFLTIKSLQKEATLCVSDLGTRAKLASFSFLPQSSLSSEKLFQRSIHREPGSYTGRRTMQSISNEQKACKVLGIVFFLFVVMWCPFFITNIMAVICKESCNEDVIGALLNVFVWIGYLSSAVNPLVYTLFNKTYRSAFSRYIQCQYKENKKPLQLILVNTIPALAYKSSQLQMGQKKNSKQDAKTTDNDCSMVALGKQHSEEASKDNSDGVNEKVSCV

[2] = target: dopamine (DA) D1 receptors (Homo sapiens, UniProt P21728); conditions: as described in PCT/DK04/000546; cited from earlier work
Sequence of dopamine (DA) D1 receptors (P21728 whole entry): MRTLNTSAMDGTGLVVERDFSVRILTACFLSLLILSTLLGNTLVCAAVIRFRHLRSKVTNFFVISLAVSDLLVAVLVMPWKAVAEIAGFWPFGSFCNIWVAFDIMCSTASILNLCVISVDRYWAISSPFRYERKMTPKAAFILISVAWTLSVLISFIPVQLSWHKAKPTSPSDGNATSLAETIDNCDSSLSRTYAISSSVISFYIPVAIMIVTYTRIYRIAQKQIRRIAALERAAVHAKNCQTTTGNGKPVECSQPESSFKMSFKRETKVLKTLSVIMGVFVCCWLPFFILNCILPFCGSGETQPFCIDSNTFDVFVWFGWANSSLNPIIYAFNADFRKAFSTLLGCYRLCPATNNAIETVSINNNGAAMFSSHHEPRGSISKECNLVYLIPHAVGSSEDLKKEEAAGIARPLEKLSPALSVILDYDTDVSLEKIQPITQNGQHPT

CYP2D6 = CYP2D6 (Homo sapiens, UniProt P10635); conditions: as described in PCT/DK04/000546; cited from earlier work
Sequence of CYP2D6 (P10635 whole entry): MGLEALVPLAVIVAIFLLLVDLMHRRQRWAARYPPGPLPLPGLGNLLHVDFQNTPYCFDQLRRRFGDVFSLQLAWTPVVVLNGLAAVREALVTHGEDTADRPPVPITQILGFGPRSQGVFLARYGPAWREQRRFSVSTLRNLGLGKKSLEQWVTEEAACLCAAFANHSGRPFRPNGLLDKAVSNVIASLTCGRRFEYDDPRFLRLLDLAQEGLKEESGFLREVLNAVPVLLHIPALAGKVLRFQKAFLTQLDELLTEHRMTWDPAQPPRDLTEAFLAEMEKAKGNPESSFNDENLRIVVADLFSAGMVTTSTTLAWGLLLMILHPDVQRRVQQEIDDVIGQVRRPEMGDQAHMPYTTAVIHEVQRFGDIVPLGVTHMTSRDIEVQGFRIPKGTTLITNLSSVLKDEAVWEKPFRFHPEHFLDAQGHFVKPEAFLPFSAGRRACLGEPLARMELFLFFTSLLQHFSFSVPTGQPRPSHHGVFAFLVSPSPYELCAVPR

QT interval = conditions: rabbit model; as described in PCT/DK04/000546; cited from earlier work
[3] = system: pigs sensitized to haloperidol; assay: dystonia in pigs sensitized to haloperidol; type: in vivo
DA D2 receptors = DA D2 receptors (Homo sapiens, UniProt P14416); conditions: as described in PCT/DK04/000546; cited from earlier work
Sequence of DA D2 receptors (P14416 whole entry): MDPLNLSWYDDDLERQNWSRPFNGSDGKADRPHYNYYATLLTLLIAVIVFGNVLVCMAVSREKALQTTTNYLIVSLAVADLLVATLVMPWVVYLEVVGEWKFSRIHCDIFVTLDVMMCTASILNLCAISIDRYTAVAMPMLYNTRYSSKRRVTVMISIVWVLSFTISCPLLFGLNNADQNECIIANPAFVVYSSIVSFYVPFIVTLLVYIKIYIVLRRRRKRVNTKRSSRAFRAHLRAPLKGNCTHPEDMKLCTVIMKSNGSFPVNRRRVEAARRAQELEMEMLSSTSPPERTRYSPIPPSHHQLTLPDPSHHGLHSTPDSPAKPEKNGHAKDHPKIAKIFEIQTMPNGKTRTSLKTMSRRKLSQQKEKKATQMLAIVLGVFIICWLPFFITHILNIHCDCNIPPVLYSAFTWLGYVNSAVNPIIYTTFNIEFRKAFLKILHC

dopamine D2 receptors = dopamine D2 receptors (Homo sapiens, UniProt P14416); conditions: as described in PCT/DK04/000546; cited from earlier work
Sequence of dopamine D2 receptors (P14416 whole entry): as above

Sequence of dopamine D1 receptors (P21728 whole entry): as the sequence (P21728 whole entry) above

SMILES: CC1(C)CN([C@@H]2C[C@@H](c3ccccc3)c3ccc(Cl)cc32)CCN1 [Compound I, trans-1-((1R,3S)-6-chloro-3-phenylindan-1-yl)-3,3-dimethylpiperazine]
- affinity for alfa1 adrenoceptors (alfa1 adrenoceptors): high affinity
- functional activity at dopamine D1 receptors (dopamine D1 receptors): antagonist
- functional activity at serotonin 5-HT2a receptors [1]: antagonist
- affinity for dopamine (DA) D1 receptors [2]: high affinity
- inhibition of CYP2D6 (CYP2D6): relatively weak inhibitor
- effect on the QT interval (QT interval): relatively low effect
- induction of dystonia (EPS liability) [3]: did not induce dystonia
- affinity for DA D2 receptors (DA D2 receptors): high affinity
- functional activity at dopamine D2 receptors (dopamine D2 receptors): antagonist
